The values that follow are results of earlier work, collected in patent publication US20220273652A1, “PHARMACEUTICAL COMPOSITION COMPRISING HMG-COA REDUCTASE INHIBITORS AND FENOFIBRATE” (INTAS PHARMACEUTICALS LTD., priority 2019, published 2022).

Molecules are shown by their SMILES.

This data set relates to cytochrome P450. Particulars: human hepatocytes.

For `CC(C)c1nc(N(C)S(C)(=O)=O)nc(-c2ccc(F)cc2)c1/C=C/[C@@H](O)C[C@@H](O)CC(=O)O` [rosuvastatin, bis[(E)-7-[4(4-fluorophenyl)-6-isopropyl-2-[methyl(methylsulfonyl)amino]-pyrimidin-5-yl](3R,5S)-3,5dihydroxyhept-6-enoic acid]], the “Substrate for cytochrome P450-based metabolism” value was “poor substrate”.
